Results from US20090233307A1, “METHODS FOR DETECTION OF SINGLE STRAND BREAKS IN DNA” (The University of North Carolina at Chapel Hill, priority 2008, published 2009).

How the values were obtained:
[1] = system: Pol β null cells; assay: SSB repair through NAD(P)H depletion, Pol β null cells; type: cell-based, chicken; settings: 1 mM MMS for up to 4 hours, Pol β null cells
Experimental: SSB repair capacity was determined by a real-time colorimetric assay that measures intracellular NAD(P)H levels (Tano et al., DNA Repair, 6, 869-875 (2007)). PARP-1 activation during SSB repair leads to NAD^+ consumption, which can be indirectly monitored through NAD(P)H depletion (Nakamura et al., Nucleic Acids Res., 31, e104 (2003)). Briefly, 5×10^3 cells/well were seeded into a 96-well plate. After a 30 minute incubation period, the cells were treated with 1 mM MMS quickly followed by the addition of a dye containing XTT (Sigma) and 1-methoxy PMS (Sigma). For up to 4 hours, the NAD(P)H-dependent conversion of the XTT tetrazolium salt to a yellow colored formazan dye was measured spectrophotometrically. Decreases in intracellular NAD(P)H levels were determined through comparison of values to those of the PBS control. Established methods for detecting SSBs have not been adequately characterized for pH effects on DNA structure and chemistry and also lack a high specificity for SSBs, primarily because of artifactual SSB formation. […] The accumulation of SSBs leads to PARP-1 over-activation and the consumption of NAD+, which is indirectly monitored in living cells through the measurement of intracellular NAD(P)H depletion using tetrazolium salts, such as XTT, during chemical exposure (Tano et al., DNA Repair, 6, 869-875 (2007)). […]

[2] = system: Pol β null cells; type: cell-based, chicken
Experimental: DT40 and Pol β null cells were seeded into 100 cm dishes and allowed to divide overnight to reach the density of 1×10^6 cells/mL. Cells were exposed to a continuous treatment of 1 mM methyl methanesulfonate (MMS; Aldrich) for up to 4 hours. Control cells received 1× phosphate buffered saline (PBS) for 0.5 hour. After incubation, cells were harvested, washed with chilled 1× PBS, pelleted, and stored at −80° C. until DNA isolation. Using this protocol, DT40 cells were also incubated in the absence of chemical to obtain a stock of untreated DNA.

[3] = system: Chinese hamster ovary (CHO) AA8 cells; assay: OTX-coupled comet assay; type: cell-based; settings: 10 minute exposure to 1 mM MMS, CHO AA8
Experimental: Chinese hamster ovary (CHO) AA8 cells were seeded at a concentration 0.5×10^6 cell/mL into several 10 cm culture dishes with 10 mL of MEM-α media (Gibco) supplemented with 10% fetal bovine serum (heat inactivated; Sigma), 100 μg/mL penicillin, and 100 μg/mL streptomycin. These were allowed to grow for 48 hours at 37° C. and 5% CO2. Culture dishes were about 80-85% confluent at harvest.
Before cells were harvested for use in the comet assay, the lysis solution (2.5 M NaCl, 100 mM Na2-EDTA, 10 mM Trizma, pH 10) was completed with the addition of 10% (v/v) DMSO and 1% (v/v) Triton X-100, mixed thoroughly, and refrigerated at 4° C. A 0.5% solution of low melting point agarose (LMPA) was also prepared and allowed to equilibrate to 37° C. in a water bath. Partially frosted microscope slides, pre-coated several days before with 50 μL of 1% normal melting point agarose (NMPA), were labeled and set aside.
Prior to cell harvest, the media was removed and each dish was washed with 10 mL of 1×PBS. An additional 2 mL of 1×PBS was added to each dish and the cells were harvested using a rubber policeman. Harvested cells were combined into 15 mL centrifuged tubes and gently mixed by pipetting to obtain a homogenous cell sample. The cell count was obtained using a hemacytometer. The volume of cell sample needed to obtain 11,000 cells per slide to be prepared was added to a new 15 mL centrifuge tube and centrifuged for 5 minutes at 1,100 RPM. The supernatant was removed and the cell pellet resuspended in 1×PBS at a volume equal to 10 μL per slide to be prepared (e.g. 5 slides×10 μL per slide=50 μL 1×PBS total).
For each slide to be prepared, 10 μL of the cell sample was added to a 1.5 mL centrifuge tube. The cell layer of the slide was created by first gently mixing 100 μL of the 0.5% LMPA with the 10 μL of cell sample in the tube. This mixture was then added to a pre-coated slide and a coverslip placed onto the slide to create a thin layer of the cell mixture. Slides with cell layers were then refrigerated at 4° C. for 15 minutes to solidify the gel. After this incubation, the initial coverslips were removed and an additional 150 μL of 0.5% LMPA was added to each slide. A fresh coverslip was placed onto each slide to create a thin top layer and the slides were refrigerated for another 15 minutes. After removing the coverslip, completed slides that were receiving MMS treatment were placed in a slide chamber containing warmed MEM-α media with 1 mM MMS for 10 minutes. The slide chamber was kept warm by placing it within an incubator held at 37° C. After the 10 minutes, the slides were washed with 1×PBS for 5 minutes at room temperature and then transferred to slide chambers containing the chilled lysis solution. […]

COS(C)(=O)=O [MMS, methyl methanesulfonate]
intracellular NAD(P)H levels [1]: time-dependent decrease but with more extensive depletion occurring as early as 30 minutes | AP site formation (ASB assay) compared with parental DT40 cells [2]: more massive AP site formation | AP sites (ASB assay) compared to control ([2]; chicken, 1 mM): time-dependent, significant (p<0.01 for all time points, student t-test) increase in AP sites | tail moment compared to the untreated control (no MMS) [3]: significant difference in tail moment
